Structures can show the parent of a compound that is named as a salt. Where two headings read alike, the source gives them in different places.
Columns and labels:
MMP-13 = MMP-13 (Homo sapiens, UniProt P45452); experiment: in vitro MMP inhibition assay (fluorogenic substrate, protocol of Huang et al.); assay type: biochemical
Protocol: (§1) In order to evaluate the affinity of the new barbiturate-based compounds towards MMPs, an in vitro inhibition study was performed. The IC50-values were determined for MMP-2, MMP-8, MMP-9, MMP-13, and […] using the protocol from Huang et al. Additionally, the corresponding precursors were also measured and outlined in the SI for comparison.
(§2) To determine the relative potency of new inhibitors in terms of IC50-values the method developed by Huang et al. was applied in an in vitro inhibition study.[14] Compounds of interest were evaluated regarding affinity to MMP-2, -8, -9, -13 and -14 using the artificial MMP-substrate (7-Methoxycoumarine-4-yl)-acetyl-Pro-Leu-Gly-Leu-[3-(2,4-dinitrophenyl)-l-2,3-diaminopropionyl]-Ala-Arg-NH2 (R&D Systems, Minneapolis, USA). The activated form of the corresponding MMPs (2 nM each) were incubated at 37 °C with the barbiturate derivatives in different concentrations (10 pM-1 mM) in TRIS-buffer (50 mM, pH = 7.5), sodium chloride (0.2M), calcium chloride (5 mM), zinc sulfate (20 µM) and Brij® (0.05%) for 30 min. Samples of this mixture (90 µL) were added to the substrate (50 µM, 10 µL) at 37 °C and the increase of fluorescence as a function of time was measured using a TriStar² LB 942 Analyzers (Berthold Technologies, λEx = 330 nm, λEm = 390 nm). The linear change of relative fluorescence after 10 min was plotted as a function of the concentration of the used inbhibitor. The IC50-values were determined by non-linear regression using the Grace 5.1.8 software (Linux).

MMP-14 = MMP-14 (Homo sapiens, UniProt P50281); experiment: as above; assay type: biochemical
Protocol: as §1, §2

MMP-2 = biological target: T1, MMP-2 (Homo sapiens, UniProt P08253); experiment: as above; assay type: biochemical
T1 sequence (P08253 110-660): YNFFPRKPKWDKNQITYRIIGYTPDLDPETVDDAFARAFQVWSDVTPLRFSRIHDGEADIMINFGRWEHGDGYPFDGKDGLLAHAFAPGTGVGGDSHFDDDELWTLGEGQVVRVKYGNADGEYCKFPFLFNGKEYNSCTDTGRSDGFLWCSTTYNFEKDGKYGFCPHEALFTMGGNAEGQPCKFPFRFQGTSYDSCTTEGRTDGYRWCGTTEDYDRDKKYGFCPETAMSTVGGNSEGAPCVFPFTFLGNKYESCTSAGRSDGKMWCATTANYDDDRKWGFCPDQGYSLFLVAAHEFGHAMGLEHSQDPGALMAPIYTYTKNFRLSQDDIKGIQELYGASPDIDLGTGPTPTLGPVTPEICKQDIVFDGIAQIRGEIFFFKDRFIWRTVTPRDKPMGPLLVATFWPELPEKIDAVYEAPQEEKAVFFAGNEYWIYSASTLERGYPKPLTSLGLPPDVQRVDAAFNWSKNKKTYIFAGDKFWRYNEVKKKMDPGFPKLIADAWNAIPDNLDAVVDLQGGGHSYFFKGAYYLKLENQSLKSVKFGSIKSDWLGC
Protocol: as §1, §2

MMP-8 = MMP-8 (Homo sapiens, UniProt P22894); experiment: as above; assay type: biochemical
Protocol: as §1, §2

MMP-9 = MMP-9 (Homo sapiens, UniProt P14780); experiment: as above; assay type: biochemical
Protocol: as §1, §2

[1] = distribution coefficient (logDexp), 1-octanol / PBS-buffer; assay type: physicochemical; details: 1-octanol / PBS-buffer pH = 7.4, 99mTc-labeled compound
Protocol: The serum stability of all radiolabeled compounds was evaluated by incubation in human and murine serum at 37 °C for up to 120 min and analyzed by HPLC. The distribution coefficients (logDexp) were determined in a two-phase system consisting of 1-octanol and PBS-buffer (pH = 7.4) according to the literature.
Following a method described by Prante et al.[13], the distribution coefficient (logDexp) of the radioactive compound was determined in a two-phase system consisting of 1-octanol and PBS-buffer (pH = 7.4) to determine the lipophilicity. For this purpose, the corresponding ligand (~ 20 kBq) was dissolved in buffer (500 μL). 1-Octanol (500 μL) was added and the mixture was shaken at room temperature for 1 min. To achieve phase separation, the system was centrifuged for 2 min at 3000 rpm. Subsequently a part of the octanol phase (400 μL) was removed and buffer (400 μL) was added. The combined phases were shaken and layers were separated according to the description above. Aliquots of the buffer and octanol layers (3 × 100 μL from every layer) were taken to measure radioactivity in a γ-counter. The measurement provided the activity in counts per minute (cpm), the values were decay corrected. By calculating the quotient of cpm (1-Octanol)cpm (PBS) the logDexp can be determined as logcpm (1-Octanol)cpm (PBS).

[2] = activated MMP 2 nM, 37 °C, 30 min preincubation, non-radioactive compound, read-out: IC50 MMP-13
[3] = activated MMP 2 nM, 37 °C, 30 min preincubation, non-radioactive compound, read-out: IC50 MMP-14
[4] = activated MMP 2 nM, 37 °C, 30 min preincubation, non-radioactive compound, read-out: IC50 MMP-2
[5] = activated MMP 2 nM, 37 °C, 30 min preincubation, non-radioactive compound, read-out: IC50 MMP-8
[6] = activated MMP 2 nM, 37 °C, 30 min preincubation, non-radioactive compound, read-out: IC50 MMP-9

Sequence of MMP-8 (P22894 101-467, species assumed): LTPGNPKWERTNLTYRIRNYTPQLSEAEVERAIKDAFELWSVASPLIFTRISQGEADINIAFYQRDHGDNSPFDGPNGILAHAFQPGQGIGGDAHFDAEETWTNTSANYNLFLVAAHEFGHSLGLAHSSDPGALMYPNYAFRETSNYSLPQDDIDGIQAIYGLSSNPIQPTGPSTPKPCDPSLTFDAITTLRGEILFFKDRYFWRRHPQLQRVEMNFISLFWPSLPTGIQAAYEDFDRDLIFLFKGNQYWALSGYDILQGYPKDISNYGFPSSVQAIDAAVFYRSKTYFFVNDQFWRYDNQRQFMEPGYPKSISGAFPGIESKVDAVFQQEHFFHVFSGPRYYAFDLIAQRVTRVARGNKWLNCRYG
Sequence of MMP-9 (P14780 107-707 limits assumed, species assumed): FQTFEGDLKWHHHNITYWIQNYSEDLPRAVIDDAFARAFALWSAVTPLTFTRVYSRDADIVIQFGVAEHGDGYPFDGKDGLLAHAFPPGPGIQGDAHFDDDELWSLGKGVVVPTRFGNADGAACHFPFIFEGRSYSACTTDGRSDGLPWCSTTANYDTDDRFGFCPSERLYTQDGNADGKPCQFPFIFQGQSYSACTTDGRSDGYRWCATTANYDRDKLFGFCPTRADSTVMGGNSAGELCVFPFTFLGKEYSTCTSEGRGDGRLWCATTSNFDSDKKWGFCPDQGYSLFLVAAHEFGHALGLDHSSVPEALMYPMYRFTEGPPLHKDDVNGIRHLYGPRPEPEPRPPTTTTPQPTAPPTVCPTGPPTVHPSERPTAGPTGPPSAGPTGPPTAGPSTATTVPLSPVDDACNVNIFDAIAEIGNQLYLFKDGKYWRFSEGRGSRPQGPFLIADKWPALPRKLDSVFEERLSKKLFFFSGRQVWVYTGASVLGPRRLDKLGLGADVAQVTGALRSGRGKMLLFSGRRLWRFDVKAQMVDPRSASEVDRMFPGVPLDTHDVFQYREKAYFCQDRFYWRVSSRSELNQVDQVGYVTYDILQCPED

## N[C@@H](Cc1cn(CCOCCOCCOCCN2CCN(C3(c4ccc(Oc5ccccc5)cc4)C(=O)NC(=O)NC3=O)CC2)nn1)C(=O)[O][Re](=[C]=O)(=[C]=O)=[C]=O [MEA39, (S)-2-Amino-3-[1-(2-{2-[2-(2-{4-[2,4,6-trioxo-5-(4-phenoxyphenyl)-hexahydropyrimidine-5-yl]piperazine-1-yl}ethoxy)ethoxy]ethoxy}ethyl)-1H-1,2,3-triazol-4-yl]propionic acid-carbonyl rhenium(I)]
MMP-13; [2]
  IC50: 2 ± 0.3 nM
MMP-14; [3]
  IC50: 5.9 ± 0.7 nM
MMP-2; [4]
  IC50: 2 ± 0.5 nM
MMP-8; [5]
  IC50: 28 ± 7 nM
MMP-9; [6]
  IC50: 0.9 ± 0.1 nM
[1]
  LogD (compound labeled by [^99mTc]): 0.79 ± 0.03

## NCCCC[C@H](NCc1cn(CCOCCOCCOCCN2CCN(C3(c4ccc(Oc5ccccc5)cc4)C(=O)NC(=O)NC3=O)CC2)nn1)C(=O)[O-].O=[C]=[Re+](=[C]=O)=[C]=O [MEA61, {[1-(2-{2-[2-(2-{4-[2,4,6-Trioxo-5-(4-phenoxyphenyl)hexahydropyrimidin-5-yl]piperazin-1-yl}ethoxy)ethoxy]ethoxy}ethyl)-1H-1,2,3-triazol-4-yl]methyl}-L-lysinate tricarbonylrhenium(I)]
MMP-13; [2]
  IC50: 26 ± 0.6 nM
MMP-14; [3]
  IC50: 14 ± 0.8 nM
MMP-2; [4]
  IC50: 3.6 ± 0.7 nM
MMP-8; [5]
  IC50: 5.5 ± 0.4 nM
MMP-9; [6]
  IC50: 8 ± 0.5 nM
[1]
  LogD (compound labeled by [^99mTc]): 0.35 ± 0.23

## N[C@@H](Cc1cn(CCOCCOCCOCCN2CCN(C3(c4ccc(Oc5ccccc5)cc4)C(=O)NC(=O)NC3=O)CC2)nn1)C(=O)O [compound 14, (S)-2-Amino-3-[1-(2-{2-[2-(2-{4-[2,4,6-trioxo-5-(4-phenoxyphenyl)-hexahydropyrimidine-5-yl]piperazine-1-yl}ethoxy)ethoxy]ethoxy}ethyl)-1H-1,2,3-triazol-4-yl]propionic acid potassium salt]
MMP-13; read-out: IC50 MMP-13, activated MMP 2 nM, 37 °C, 30 min preincubation, non-radioactive compound
  IC50: 27 ± 9 nM
MMP-14; read-out: IC50 MMP-14, activated MMP 2 nM, 37 °C, 30 min preincubation, non-radioactive compound
  IC50: 1.5 ± 0.4 nM
MMP-2; read-out: IC50 MMP-2, activated MMP 2 nM, 37 °C, 30 min preincubation, non-radioactive compound
  IC50: 0.6 ± 0.1 nM
MMP-8; read-out: IC50 MMP-8, activated MMP 2 nM, 37 °C, 30 min preincubation, non-radioactive compound
  IC50: 3.6 ± 2.6 nM
MMP-9; read-out: IC50 MMP-9, activated MMP 2 nM, 37 °C, 30 min preincubation, non-radioactive compound
  IC50: 1.4 ± 0.3 nM

## NCCCC[C@H](NCc1cn(CCOCCOCCOCCN2CCN(C3(c4ccc(Oc5ccccc5)cc4)C(=O)NC(=O)NC3=O)CC2)nn1)C(=O)O [compound 17, {[1-(2-{2-[2-(2-{4-[2,4,6-Trioxo-5-(4-phenoxyphenyl)hexahydropyrimidin-5-yl]piperazin-1-yl}ethoxy)ethoxy]ethoxy}ethyl)-1H-1,2,3-triazol-4-yl]methyl}-L-lysinate]
MMP-13
  IC50: 58 ± 9 nM
MMP-14
  IC50: 19 ± 2 nM
MMP-2
  IC50: 7 ± 3 nM
MMP-8
  IC50: 18 ± 3 nM
MMP-9
  IC50: 10 ± 2 nM
